Measured values as given in ChEMBL document CHEMBL4007388, “Synthesis and antiproliferative activity of monocationic arylthiophene derivatives” (Eur J Med Chem, 2017).
pIC50: −log10 of the molar value.

Experiments:
SF-539 = test: Growth inhibition of human SF539 cells incubated for 48 hrs by sulforhodamine B assay; type: functional; settings: SF-539, 48 h
OVCAR-4 = test: Growth inhibition of human OVCAR4 cells incubated for 48 hrs by sulforhodamine B assay; type: functional; settings: OVCAR-4, 48 h
SK-MEL-5 = test: Growth inhibition of human SK-MEL-5 cells incubated for 48 hrs by sulforhodamine B assay; type: functional; settings: SK-MEL-5, 48 h
UACC-62 = test: Growth inhibition of human UACC62 cells incubated for 48 hrs by sulforhodamine B assay; type: functional; settings: UACC-62, 48 h
U-251 = test: Growth inhibition of human U251 cells incubated for 48 hrs by sulforhodamine B assay; type: functional; settings: U-251, 48 h
A549 = test: Growth inhibition of human A549/ATCC cells incubated for 48 hrs by sulforhodamine B assay; type: functional; settings: A549, 48 h
NCI-H460 = test: Growth inhibition of human NCI-H460 cells incubated for 48 hrs by sulforhodamine B assay; type: functional; settings: NCI-H460, 48 h
Hs-578T = test: Growth inhibition of human Hs 578T cells incubated for 48 hrs by sulforhodamine B assay; type: functional
SF-268 = test: Growth inhibition of human SF268 cells incubated for 48 hrs by sulforhodamine B assay; type: functional; settings: SF-268, 48 h
SF-295 = test: Growth inhibition of human SF295 cells incubated for 48 hrs by sulforhodamine B assay; type: functional; settings: SF-295, 48 h
OVCAR-3 = test: Growth inhibition of human OVCAR3 cells incubated for 48 hrs by sulforhodamine B assay; type: functional; settings: OVCAR-3, 48 h
SK-MEL-28 = test: Growth inhibition of human SK-MEL-28 cells incubated for 48 hrs by sulforhodamine B assay; type: functional; settings: SK-MEL-28, 48 h
[1] = Inhibition of PTK in human MCF7 cells preincubated for 2 hrs followed by poly-Glu-Tyr substrate addition by ELISA; type: cell-based
Escherichia coli = test: Induction of Escherichia coli genomic DNA cleavage after 1 hr by agarose gel electrophoresis method
UO-31 = test: Growth inhibition of human UO31 cells incubated for 48 hrs by sulforhodamine B assay; type: functional; settings: UO-31, 48 h
Malme-3M = test: Growth inhibition of human MALME-3M cells incubated for 48 hrs by sulforhodamine B assay; type: functional
OVCAR-5 = test: Growth inhibition of human OVCAR5 cells incubated for 48 hrs by sulforhodamine B assay; type: functional; settings: OVCAR-5, 48 h
[2] = Safety index, ratio of compound IC50 to 5-fluorouracil IC50 for human WI38 cells; type: ADME, cell-based; settings: WI-38 cells, read-out: Ratio IC50
[3] = Safety index, ratio of compound IC50 to 5-fluorouracil IC50 for human WISH cells; type: ADME, cell-based; settings: read-out: Ratio IC50
MDA-MB-231 = test: Growth inhibition of human MDA-MB-231 cells incubated for 48 hrs by sulforhodamine B assay; type: functional; settings: MDA-MB-231, 48 h
T47D = test: Growth inhibition of human T47D cells incubated for 48 hrs by sulforhodamine B assay; type: functional

Structure (SMILES) | GI50 (SF-539) [nM] | GI50 (OVCAR-4) [nM] | GI50 (SK-MEL-5) [nM] | GI50 (UACC-62) [nM] | GI50 (U-251) [nM] | GI50 (A549) [nM] | GI50 (NCI-H460) [nM] | GI50 (Hs-578T) [nM] | GI50 (SF-268) [nM] | GI50 (SF-295) [nM] | GI50 (OVCAR-3) [nM] | GI50 (SK-MEL-28) [nM] | pIC50 [1] | Activity (Escherichia coli) | GI50 (UO-31) [nM] | GI50 (Malme-3M) [nM] | GI50 (OVCAR-5) [nM] | GI50 (MDA-MB-231) [nM] | GI50 (T47D) [nM] | also measured
COc1cc(OC)cc(-c2ccc(-c3ccc(C(=N)N)c(F)c3)s2)c1 | 165 | 361 | 956 | 1440 | 198 | 400 | 195 | 1470 | 1150 | 1590 | 815 | 176 | 6.06 | Dose-dependent effect | 473 | 195 | 207 |  |  | 
N=C(N)c1ccc(-c2ccc(-c3ccc(Cl)cc3)s2)cc1F | 206 | 224 | 1270 | 218 | 203 | 217 | 207 | 726 | 197 | 691 | 268 | 205 | 6.97 | Dose-dependent effect | 1720 | 490 | 248 |  |  | selectivity ratio [2]: 6; selectivity ratio [3]: 9
N=C(N)c1ccc(-c2ccc(-c3ccc(Cl)cc3)s2)cc1 | 171 | 172 | 204 | 178 | 172 | 202 | 193 | 200 | 184 | 171 | 194 | 176 | 7.89 | Dose-dependent effect | 175 | 219 | 169 | 184 | 179 | 
N=C(N)c1ccc(-c2ccc(-c3ccccc3)s2)cc1F | 4740 | 10400 | 3430 | 10300 | 4700 | 5100 | 3690 | 10900 | 11200 |  | 8900 | 8230 |  | Dose-dependent effect | 2680 | 3250 | 10900 | 3340 | 5130 | 
COc1cc(OC)cc(-c2ccc(-c3ccc(C(=N)N)cc3)s2)c1 | 1750 | 2060 | 1810 | 1870 | 1670 | 2580 | 1840 | 1990 | 1850 | 1820 | 1950 | 1790 |  | Dose-dependent effect | 1770 | 1840 | 1900 | 2080 | 1650 | 
N=C(N)c1ccc(-c2ccc(-c3ccc(F)cc3)s2)cc1 | 1620 | 1630 | 1600 | 1650 | 457 | 2120 | 392 | 2160 | 1540 | 1660 | 1710 | 1570 |  | Dose-dependent effect | 1580 | 1550 | 1550 | 1560 | 1200 | 
COc1ccc(-c2ccc(-c3ccc(C(=N)N)c(F)c3)s2)cc1 | 8960 | 6420 | 2670 | 1820 | 2920 | 4760 | 2430 | 4820 | 4850 |  | 9770 | 2310 | 6.04 | Dose-dependent effect | 3170 | 2150 | 4980 | 2750 | 2920 | 
